Measured values as given in ChEMBL document CHEMBL1201862, “PubChem BioAssay data set” (2004).
The source made the active and inactive calls.

Columns and labels:
Cytochrome P450 3A4 = Cytochrome P450 3A4 (Homo sapiens, UniProt P08684);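 also: CYP3A4 tested as one member of a cytochrome P450 panel screen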
Cytochrome P450 1A2 = biological target: T1, Cytochrome P450 1A2 (Homo sapiens, UniProt P05177);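 also: PubChem cytochrome P450 panel assay, CYP1A2 panel member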
T1 sequence (P05177 whole entry): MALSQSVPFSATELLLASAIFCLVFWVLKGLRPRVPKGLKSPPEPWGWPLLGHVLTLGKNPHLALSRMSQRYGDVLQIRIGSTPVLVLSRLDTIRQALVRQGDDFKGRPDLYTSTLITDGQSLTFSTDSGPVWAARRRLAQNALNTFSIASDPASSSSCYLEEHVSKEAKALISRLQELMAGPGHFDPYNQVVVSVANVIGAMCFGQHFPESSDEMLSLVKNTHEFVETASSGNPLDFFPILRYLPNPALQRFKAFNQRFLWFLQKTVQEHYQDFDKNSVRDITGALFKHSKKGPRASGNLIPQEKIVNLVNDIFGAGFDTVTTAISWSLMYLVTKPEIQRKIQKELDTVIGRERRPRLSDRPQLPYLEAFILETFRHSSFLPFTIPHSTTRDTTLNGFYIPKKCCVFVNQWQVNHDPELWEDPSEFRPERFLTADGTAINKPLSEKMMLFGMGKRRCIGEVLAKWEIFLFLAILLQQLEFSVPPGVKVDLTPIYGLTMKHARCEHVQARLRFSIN

[1] = biological target: T2, Heat shock factor protein 1 (Mus musculus, UniProt P38532); assay: decrease of HSF1-responsive luciferase luminescence – cell-based, NIH3T3, dose retest, confirmation (AID 2382); assay type: functional;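 also: NIH3T3 fibroblasts with HSF1-driven luciferase reporter stressed by proteasome inhibitor MG132; luminescence from HSF1-driven luciferase expression after 8 hours of MG132 stress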
T2 sequence (P38532 whole entry): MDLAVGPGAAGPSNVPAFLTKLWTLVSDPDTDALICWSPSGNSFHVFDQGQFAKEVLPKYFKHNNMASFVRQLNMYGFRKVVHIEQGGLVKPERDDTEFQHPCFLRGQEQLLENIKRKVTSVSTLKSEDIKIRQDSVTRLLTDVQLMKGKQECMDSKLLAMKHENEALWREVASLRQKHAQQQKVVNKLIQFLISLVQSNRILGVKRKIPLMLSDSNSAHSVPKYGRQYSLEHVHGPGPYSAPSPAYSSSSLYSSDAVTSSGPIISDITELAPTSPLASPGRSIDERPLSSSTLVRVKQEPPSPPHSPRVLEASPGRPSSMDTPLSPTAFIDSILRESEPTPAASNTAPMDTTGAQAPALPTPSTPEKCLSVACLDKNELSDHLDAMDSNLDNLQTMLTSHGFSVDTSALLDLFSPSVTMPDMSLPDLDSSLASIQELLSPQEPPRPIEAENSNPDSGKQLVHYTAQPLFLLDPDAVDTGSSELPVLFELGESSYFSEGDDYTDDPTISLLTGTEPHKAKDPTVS

Streptokinase A = biological target: T3, Streptokinase A (Streptococcus pyogenes serotype M1, UniProt P10520); assay: viability-normalized secreted streptokinase activity reduction – plasminogen activation absorbance, OD405, dose response (AID 1914); assay type: functional, Streptococcus pyogenes M1 GAS;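 also: secreted streptokinase activity via plasminogen activation per viability signal from cell pellet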
T3 sequence (P10520 whole entry): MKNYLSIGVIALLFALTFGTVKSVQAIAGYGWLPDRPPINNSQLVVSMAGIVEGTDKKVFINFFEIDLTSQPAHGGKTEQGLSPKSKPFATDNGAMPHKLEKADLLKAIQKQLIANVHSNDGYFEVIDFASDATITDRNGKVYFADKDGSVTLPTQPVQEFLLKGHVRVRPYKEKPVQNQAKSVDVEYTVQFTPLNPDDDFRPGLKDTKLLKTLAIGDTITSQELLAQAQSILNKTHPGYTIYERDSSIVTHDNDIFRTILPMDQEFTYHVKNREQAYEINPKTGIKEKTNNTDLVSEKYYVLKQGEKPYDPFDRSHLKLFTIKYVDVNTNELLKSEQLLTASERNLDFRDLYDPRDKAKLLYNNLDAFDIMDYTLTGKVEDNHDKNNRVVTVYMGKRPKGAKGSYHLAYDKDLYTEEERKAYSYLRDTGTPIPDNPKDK

Cytochrome P450 2C9 = Cytochrome P450 2C9 (Homo sapiens, UniProt P11712)
Cytochrome P450 2C19 = Cytochrome P450 2C19 (Homo sapiens, UniProt P33261); assay: Cytochrome panel assay with activity outcomes. Panel member name: p450-cyp2c19 Compounds with AC50 equal or less than 10 uM are considered active; assay type: functional; details: read-out: AC50
[2] = test system: Streptococcus sp. 'group A'; assay: Streptococcus pyogenes SK(-)GAS viability under kanamycin – luminescence, BacTiterGlo, confirmation, counter-screen for streptokinase expression inhibitor project, dose response (AID 1900); assay type: functional, organism-based
Streptococcus = assay: GAS UMAA2166 growth inhibition – luminescence, BacTiterGlo, counter-screen for streptokinase expression inhibitor project, dose response (AID 1915); assay type: functional, organism-based;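 also: potency for reduction of bacterial viability or growth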
[3] = luciferase reporter signal suppression in cells – H4 neuroglioma cells, luminescence, dose response (AID 1990); assay type: functional, cell-based
[4] = alpha-synuclein stem-loop luciferase translation blockers – H4 neuroglioma cells, luminescence, confirmation (AID 1988); assay type: functional, cell-based
[5] = Luminescence Cell-Based Dose Response HTS to Identify Inhibitors of 5'UTR Stem-Loop Driven Prion Protein mRNA Translation in H4 Neuroglioblastoma Cells. [Related pubchem assays: 1827 (Project Summary), 1813 (Primary HTS)]; assay type: functional

Cytochrome P450 3A4, sequence (P08684 whole entry): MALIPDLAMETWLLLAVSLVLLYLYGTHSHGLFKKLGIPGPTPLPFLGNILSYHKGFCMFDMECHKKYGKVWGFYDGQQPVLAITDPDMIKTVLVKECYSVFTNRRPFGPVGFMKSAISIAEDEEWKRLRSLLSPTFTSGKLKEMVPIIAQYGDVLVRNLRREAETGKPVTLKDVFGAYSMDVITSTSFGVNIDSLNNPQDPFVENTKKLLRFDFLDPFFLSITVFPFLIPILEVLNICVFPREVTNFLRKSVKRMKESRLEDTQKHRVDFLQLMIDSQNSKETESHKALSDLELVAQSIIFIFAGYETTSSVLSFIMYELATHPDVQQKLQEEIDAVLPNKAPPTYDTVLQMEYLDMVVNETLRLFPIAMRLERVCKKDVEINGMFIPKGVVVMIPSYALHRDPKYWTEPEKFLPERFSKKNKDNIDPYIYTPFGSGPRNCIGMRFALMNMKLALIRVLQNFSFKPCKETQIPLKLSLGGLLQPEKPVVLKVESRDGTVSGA
Cytochrome P450 2C9, sequence (P11712 whole entry): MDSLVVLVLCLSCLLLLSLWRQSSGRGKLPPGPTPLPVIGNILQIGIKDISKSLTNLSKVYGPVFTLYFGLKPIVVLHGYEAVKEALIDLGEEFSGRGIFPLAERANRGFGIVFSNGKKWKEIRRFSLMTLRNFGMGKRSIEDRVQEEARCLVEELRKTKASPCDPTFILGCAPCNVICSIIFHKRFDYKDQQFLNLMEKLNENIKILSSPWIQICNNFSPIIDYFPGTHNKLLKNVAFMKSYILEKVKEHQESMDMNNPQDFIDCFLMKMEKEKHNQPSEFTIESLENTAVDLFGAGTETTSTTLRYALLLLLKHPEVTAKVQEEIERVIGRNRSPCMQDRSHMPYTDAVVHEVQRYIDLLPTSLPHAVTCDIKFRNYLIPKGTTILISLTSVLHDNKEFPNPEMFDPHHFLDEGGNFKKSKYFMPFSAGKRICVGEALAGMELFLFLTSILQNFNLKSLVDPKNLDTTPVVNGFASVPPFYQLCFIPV
Cytochrome P450 2C19, sequence (P33261 whole entry): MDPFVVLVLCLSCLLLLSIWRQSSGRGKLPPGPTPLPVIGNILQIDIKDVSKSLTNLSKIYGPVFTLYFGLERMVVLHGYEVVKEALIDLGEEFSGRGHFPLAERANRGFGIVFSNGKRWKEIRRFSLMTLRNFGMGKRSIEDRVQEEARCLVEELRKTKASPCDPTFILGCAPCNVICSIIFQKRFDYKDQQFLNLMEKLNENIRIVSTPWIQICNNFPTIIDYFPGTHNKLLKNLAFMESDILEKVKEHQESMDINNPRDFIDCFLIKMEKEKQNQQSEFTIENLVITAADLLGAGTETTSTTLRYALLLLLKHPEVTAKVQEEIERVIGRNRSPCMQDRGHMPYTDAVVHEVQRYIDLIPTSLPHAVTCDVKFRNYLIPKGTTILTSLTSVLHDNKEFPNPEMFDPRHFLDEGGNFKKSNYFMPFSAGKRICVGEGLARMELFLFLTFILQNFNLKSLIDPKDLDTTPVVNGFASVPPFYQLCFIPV

Clc1ccc(Sc2cc(N3CCOCC3)nc(-c3ccccc3)n2)cc1
AC50 (Cytochrome P450 3A4): 15.8 µM (inconclusive) | AC50 (Cytochrome P450 1A2): 1.41 µM (inconclusive)

Cc1ccc2nc(N3CCN(Cc4nnnn4Cc4ccccc4)CC3)c(C#N)cc2c1
EC50 [1]: > 195 µM (not active)

Cc1ccc(C(=O)NCCn2cc(SCC(=O)N3CCOCC3)c3ccccc32)cc1
EC50 [1]: > 195 µM (not active)

Cc1cc(C)c2c(O)nc(SCC(=O)N(C)C)nc2n1
AC50 (Cytochrome P450 1A2): 15.8 µM (inconclusive)

COc1ccc(CSCCNC(=S)Nc2ccccc2)cc1Cl
EC50 (Streptokinase A): > 150 µM (not active)

COCCN(CCOC)S(=O)(=O)c1ccc(C(=O)Nc2nc(C)c(C(C)=O)s2)cc1
AC50 (Cytochrome P450 3A4): 3.16 µM (inconclusive) | AC50 (Cytochrome P450 1A2): 0.1 µM (inconclusive) | AC50 (Cytochrome P450 2C9): 20 µM (inconclusive)

Fc1cccc(CSc2ncnc3c2ncn3[C@H]2CCCS2)c1
AC50 (Cytochrome P450 2C19): 3.98 µM (inconclusive) | AC50 (Cytochrome P450 1A2): 0.501 µM (inconclusive)

CC(CO)(CO)Nc1ncnc2ccccc12
AC50 (Cytochrome P450 1A2): 6.31 µM (inconclusive)

CCCC(=O)Nc1ccc2c(c1)nc(CCNC(=O)c1ccccc1)n2C
EC50 (Streptokinase A): > 150 µM (not active) | EC50 [2]: > 150 µM (not active) | EC50 (Streptococcus): > 150 µM (not active)

CC1=NN(c2ccc([N+](=O)[O-])cc2)C(=O)/C1=C\N(C)C
EC50 (Streptokinase A): > 150 µM (not active) | EC50 [2]: 5.85 µM (active) | EC50 (Streptococcus): 10.9 µM (active)

CC(C)(C)NC(=O)c1ccc2c(c1)C1C3CCC(C3)C1C(c1ccccc1)N2 (stereo not given)
EC50 [3]: > 120 µM (not active) | EC50 [4]: > 120 µM (not active) | EC50 [5]: > 120 µM (not active)

Cn1nnnc1SCc1ccc(C(=O)Nc2ccc(Br)cc2)cc1
AC50 (Cytochrome P450 2C19): 6.31 µM (inconclusive) | AC50 (Cytochrome P450 1A2): 6.31 µM (inconclusive) | AC50 (Cytochrome P450 2C9): 2 µM (inconclusive)

CC1CCCN(S(=O)(=O)c2ccc(C(=O)Nc3nnc(C4CC4)o3)cc2)C1 (stereo not given)
EC50 (Streptokinase A): > 150 µM (not active) | EC50 [2]: 4.14 µM (active) | EC50 (Streptococcus): 13.8 µM (active)

CN1C(=O)/C(=C/c2ccccc2F)Sc2ccc(C(=O)NCC3CCCO3)cc21 (stereo not given)
EC50 (Streptokinase A): > 150 µM (not active) | EC50 [2]: 1.09 µM (active) | EC50 (Streptococcus): 15.6 µM (active)

Nc1nc2c3ccccc3nc(Cc3ccccc3)n2n1
EC50 [3]: 29.4 µM (active) | EC50 [4]: 20.8 µM (active) | EC50 [5]: > 120 µM (not active)

COc1ccc(-c2nc3cnc(N4CCOCC4)nc3n(CCc3ccccc3)c2=O)cc1
AC50 (Cytochrome P450 1A2): 10 µM (inconclusive)

CCc1cc(C(=O)NCC(C)(C)N2CCOCC2)sc1C
EC50 [1]: > 195 µM (not active)

C=CCC(NCc1ccco1)c1ccc(OC)cc1 (stereo not given)
AC50 (Cytochrome P450 3A4): 22.4 µM (inconclusive) | AC50 (Cytochrome P450 1A2): 28.2 µM (inconclusive)

CCN(CC)C(=O)c1cc(-c2ccc(Br)cc2)on1
EC50 (Streptokinase A): > 150 µM (not active) | EC50 [2]: > 150 µM (not active) | EC50 (Streptococcus): > 150 µM (not active)
